According to ChEMBL document CHEMBL1149669, “Sulfonamide derivatives as new potent and selective CB2 cannabinoid receptor agonists” (Bioorg Med Chem Lett, 2007):

Key:
Cannabinoid receptor 2 [1] = target: T1, Cannabinoid receptor 2 (Homo sapiens, UniProt P34972); assay: Displacement of [3H]CP-55940 from human CB2 receptor expressed in CHO cells; assay type: cell-based
Cannabinoid receptor 1 = Cannabinoid receptor 1 (Homo sapiens, UniProt P21554); assay: Displacement of [3H]CP-55940 from human CB1 receptor expressed in CHO cells; assay type: cell-based
Cannabinoid receptor 2 [2] = target: T1, Cannabinoid receptor 2; assay: Agonist activity at human CB2 receptor expressed in CHO cells by [35S]GTP-gamma-S binding assay; assay type: functional, cell-based
Cannabinoid receptor 2 [3] = target: T1, Cannabinoid receptor 2; assay: Agonist activity at human CB2 receptor expressed in CHO cells by [35S]GTP-gamma-S binding assay relative to CP-55940; assay type: functional, cell-based
Homo sapiens = species: Homo sapiens; assay: Selectivity for human CB2 receptor over human CB1 receptor

T1 sequence (P34972 whole entry): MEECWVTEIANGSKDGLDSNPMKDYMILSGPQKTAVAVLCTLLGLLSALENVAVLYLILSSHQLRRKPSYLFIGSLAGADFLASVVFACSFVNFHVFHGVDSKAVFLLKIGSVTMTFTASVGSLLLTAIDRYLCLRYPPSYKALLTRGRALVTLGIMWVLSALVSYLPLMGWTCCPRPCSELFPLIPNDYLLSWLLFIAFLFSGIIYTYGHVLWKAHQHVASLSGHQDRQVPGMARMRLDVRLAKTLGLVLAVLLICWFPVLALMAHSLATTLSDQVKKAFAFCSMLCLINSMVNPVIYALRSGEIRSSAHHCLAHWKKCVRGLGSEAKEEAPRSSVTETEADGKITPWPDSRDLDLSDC
Cannabinoid receptor 1, sequence (P21554 whole entry): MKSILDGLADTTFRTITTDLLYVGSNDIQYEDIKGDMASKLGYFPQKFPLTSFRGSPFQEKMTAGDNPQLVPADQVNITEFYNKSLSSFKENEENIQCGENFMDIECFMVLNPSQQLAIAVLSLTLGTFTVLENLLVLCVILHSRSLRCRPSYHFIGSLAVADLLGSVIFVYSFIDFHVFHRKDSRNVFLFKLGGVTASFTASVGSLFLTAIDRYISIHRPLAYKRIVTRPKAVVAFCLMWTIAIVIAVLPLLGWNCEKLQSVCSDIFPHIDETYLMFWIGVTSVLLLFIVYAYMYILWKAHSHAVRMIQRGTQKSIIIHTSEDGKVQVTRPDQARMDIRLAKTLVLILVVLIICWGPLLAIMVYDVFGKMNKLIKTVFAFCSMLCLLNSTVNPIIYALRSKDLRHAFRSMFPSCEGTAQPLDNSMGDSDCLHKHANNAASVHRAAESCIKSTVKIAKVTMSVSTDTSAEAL

SMILES	IC50 (Cannabinoid receptor 2 [1])	IC50 (Cannabinoid receptor 1)	EC50 (Cannabinoid receptor 2 [2])	Emax (Cannabinoid receptor 2 [3])	Ratio IC50 (Homo sapiens)
Cc1c(C(C)(C)C)s/c(=N\S(=O)(=O)c2ccccc2)n1CC1CC1	65 nM	–	–	–	–
CC(C)=CCn1c(C)c(C(C)(C)C)s/c1=N\S(=O)(=O)c1ccccc1	170 nM	–	–	–	–
C=CCn1c(C)c(C(C)(C)C)s/c1=N\S(=O)(=O)c1ccccc1	75 nM	–	–	–	–
Cc1c(C(C)(C)C)s/c(=N\S(=O)(=O)c2ccc3ccccc3c2)n1CC1CC1	490 nM	–	–	–	–
C#CCn1c(C)c(C(C)(C)C)s/c1=N\S(=O)(=O)c1ccccc1	210 nM	–	–	–	–
Cc1c(C(C)(C)C)s/c(=N\S(=O)(=O)c2cccc3ccccc23)n1CC1CC1	16 nM	1700 nM	7.2 nM	100%	106
Cc1c(C(C)(C)C)s/c(=N\S(=O)(=O)c2ccccc2)n1C	340 nM	> 50000 nM	110 nM	110%	–
